Reference: patent US12077555B2, “STAT degraders and uses thereof” (Kymera Therapeutics, Inc., priority 2019, dated 2024)

Columns and labels:
[1] = tested on: STAT3-mediated gene expression (SOCS3, PD-L1); assay: RT-qPCR of STAT3, SOCS3 and PDL-1 mRNA levels in SU-DHL-1 cells; type: cell-based; details: FIG. 15
Procedure: FIG. 5. Includes graphical images and tables showing the results of RT-qPCR in SU-DHL-1 cells at 24 hours (A) with mRNA levels (% control) over I-103 concentration (nM)(x-axis) for STAT3, SOCS3, and PDL-1 genes and CellTiterGlo (CTG) cell viability at 4 days (B) with growth inhibition (% control) over I-103 concentration (nM)(x-axis) for MOLM-16 and SU-DHL-1 cell lines. Also shown are the results of MSD degradation DC50 (nM) in MOLM-16 and SU-DHL-1 cell lines at 24 hours.

SU-DHL-1 cells = assay: wash-out study in SU-DHL-1 cells; type: cell-based; details: after 4 days
Procedure: FIG. 10 depicts wash-out study results with I-103 at 24 hours (A) and 48 hours (B).

STAT3 [2] = biological target: T1, STAT3 (Homo sapiens, UniProt P40763); assay: STAT3 degradation (DC50) in multiple ALK+ALCL cell lines; type: cell-based; details: dose response curves, FIG. 14
PD-L1 = assay: STAT3 RT-qPCR assay, PD-L1 mRNA; type: cell-based; details: SU-DHL-1 cells
Procedure: (§1) SU-DHL-1 cells were treated with compounds for a designed time. 0.3-0.6 mL lysis buffer with 2-mercaptoethanol was added to the collected cell pellet or monolayer cells. The cells were vortexed until the cell was dispersed and the cells appear lysed. One volume of 70% ethanol was added to each volume of cell homogenate and vortex. 700 μL of the sample was transferred to the spin cartridge and centrifuged at 12000 g for 15s at RT. The flow-through was discarded and the process repeated until the entire samples had been processed. 700 ul wash buffer I was added to the spin cartridge and centrifuged at 12000 g for 15s at RT and the flow-through was discarded. 500 μL wash buffer II with ethanol was added to the spin cartridge and centrifuged at 12000 g for 15s at RT and the flow-through was discarded. The process was then repeated. The spin cartridge was centrifuged at 12000 g for 2 min to dry the membrane with bound RNA. 30-100 μL RNase-free water was added to the center of the spin cartridge and incubated for 1 min at RT. […] The concentration of the RNA was quantitated using Nano-Drop. cDNA was formed from the RNA by reverse transcription and qPCR of the cDNA with primer of the gene of interest and housekeeping gene was preformed using the volumes below: […]

STAT3 [3] = assay: STAT3 RT-qPCR assay, STAT3 mRNA; type: cell-based; details: SU-DHL-1 cells, FIG. 5A, FIG. 15
Procedure: as §1

SUP-M2 tumor cells = assay: Xenograph tumor study, SUP-M2; type: in vivo, NOD SCID mice; details: ALK+ALCL xenograph model SUP-M2, intermittent dosing, FIG. 20
Procedure: Animals: 50 6-8 week old female NOD SCID mice weighing 18 to 20 grams. 25 mice were used in each study.
Method for Tumor Inoculation: Each mouse was inoculated subcutaneously with SU-DHL-1 tumor cells (1×107+Matrigel) or SUP-M2 tumor cells (5×106+Matrigel) in 0.1 ml of RPMI1640 medium supplemented with 10% FBS, 100 U/ml penicillin and […] streptomycin for tumor development. Mice were then assigned to groups such that the mean tumor volume was the same for each treatment group and time point. […] Vehicle was 25% HP-β-CD in water adjusted to pH 7.4.
Measurement Parameters: Study animals were monitored not only for tumor growth but also behavior such as mobility, food and water consumption (by cage side checking only), body weight (BW), eye/hair matting and any other abnormal effect. Any mortality and/or abnormal clinical signs was recorded. Sponsor was notified immediately if abnormal clinical signs, or if tolerability issues were observed. Body weights of all animals were measured and recorded twice per week. The measurement of tumor size was conducted twice weekly with a caliper and recorded. The tumor volume (mm3) was estimated using the formula: TV=a×b2/2, where “a” and “b” are long and short diameters of a tumor, respectively.

STAT3 [4] = biological target: T1, STAT3; assay: STAT3 HiBiT degradation assay in transfected A549 cells; type: cell-based; set-up: expressed in transfected cells; host or cells: A549; details: A549, 24 h; read-out: STAT3 HiBiT A549 degradation 24 h: Average external-Abs DC50
Procedure, shortened: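 Degradation read as HiBiT-tagged STAT3 luminescence (Nano-Glo lytic reagent, 10 min, room temperature) following 24 h compound treatment of transfected A549 cells at 3-fold, 10 points. Percent remaining signal computed against controls and fitted with a four-parameter logistic; DC50 reported as letter bins (A <0.01 to D >1.0 µM).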

T1 sequence (P40763 whole entry): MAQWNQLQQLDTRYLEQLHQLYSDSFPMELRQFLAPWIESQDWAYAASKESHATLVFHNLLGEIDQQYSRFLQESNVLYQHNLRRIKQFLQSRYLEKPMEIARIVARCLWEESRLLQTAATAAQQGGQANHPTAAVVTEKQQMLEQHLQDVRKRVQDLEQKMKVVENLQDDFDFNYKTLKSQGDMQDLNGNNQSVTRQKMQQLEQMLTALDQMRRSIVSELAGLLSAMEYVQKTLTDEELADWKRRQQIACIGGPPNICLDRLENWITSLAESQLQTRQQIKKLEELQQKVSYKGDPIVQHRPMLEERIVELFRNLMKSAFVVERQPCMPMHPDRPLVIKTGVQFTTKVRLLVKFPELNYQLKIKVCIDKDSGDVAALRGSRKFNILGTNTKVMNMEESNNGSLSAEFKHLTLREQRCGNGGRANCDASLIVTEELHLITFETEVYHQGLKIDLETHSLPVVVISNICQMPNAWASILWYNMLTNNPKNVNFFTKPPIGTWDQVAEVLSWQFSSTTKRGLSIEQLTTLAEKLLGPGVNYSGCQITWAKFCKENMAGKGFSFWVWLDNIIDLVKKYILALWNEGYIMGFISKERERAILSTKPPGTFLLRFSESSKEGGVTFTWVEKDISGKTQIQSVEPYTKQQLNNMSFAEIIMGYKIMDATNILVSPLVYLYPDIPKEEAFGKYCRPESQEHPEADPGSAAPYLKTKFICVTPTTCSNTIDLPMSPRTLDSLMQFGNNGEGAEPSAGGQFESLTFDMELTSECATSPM

Cn1c(=O)n(C2CCC(=O)NC2=O)c2ccc(C[C@H]3CC[C@@H](CC(=O)N4CC[C@H]5CC[C@@H](C(=O)N[C@@H](CCC(N)=O)C(=O)NC(c6ccccc6)c6ccccc6)N5C(=O)[C@@H](NC(=O)c5cc6cc(C(=O)P(=O)(O)O)ccc6[nH]5)C4)CC3)cc21 (stereo partly drawn) [Compound I-174, 2-[[(5S,8S,10aR)-8-[[(1S)-3-carbamoyl-1-(diphenylmethylcarbamoyl)propyl]carbamoyl]-6-oxo-3-[2-[(1s,4s)-4-[[1-(2,6-dioxopiperidin-3-yl)-3-methyl-2-oxo-1,3-benzodiazol-5-yl]methyl]cyclohexyl]acetyl]-octahydropyrrolo[1,2-a][1,5]diazocin-5-yl]carbamoyl]-1H-indole-5-carbonylphosphonic acid]
STAT3-mediated gene expression of SOCS3 and PD-L1 [1]: repression of STAT3-mediated gene expression | growth and cell death after wash-out (SU-DHL-1 cells; 24 hours wash-out): strong growth inhibition and potential cell death | growth and cell death after wash-out (SU-DHL-1 cells; 48 hours wash-out): complete growth inhibition and cell death | degradation in multiple ALK+ALCL cell lines (STAT3 [2]): mediated degradation | IC50 (PD-L1; Homo sapiens, 24 hr): 0.029 µM | STAT3-dependent gene expression of PDL-1 (PD-L1; FIG. 5A, FIG. 15): downregulates | STAT3-dependent gene expression of STAT3 (STAT3 [3]): downregulates | tumor regression (SUP-M2 tumor cells): achieves tumor regression | DC50 (STAT3 [4]): 10 to 100 nM
